How the values were obtained:
[1] = organism: Ovis aries; assay: Inhibition of COX in sheep seminal vesicle microsome assessed as reduction in PGE2 concentration at 13 uM relative to control; assay type: microsomes
[2] = organism: Ovis aries; assay: Inhibition of COX in sheep seminal vesicle microsome assessed as reduction in PGE2 concentration at 6.5 uM relative to control; assay type: microsomes
[3] = organism: Sus scrofa; assay: Inhibition of 5-LO from pig leukocytes at 5 uM

SMILES | inhibition [1] [%] | inhibition [2] [%] | inhibition [3] [%]
CCCC/C=C/C#CC#CCCCCC(=O)O | 56 | 44 | 14
CCCC/C=C\C#CC#CCCCCCC(=O)O | 51 | 36 | 45
CCCCC/C=C\CC#CC#CCCCCCC(=O)O | 56 | 40 | 55
CCCCC#CC#CC#CCCCCC(=O)O | 55 | 36 | 18
CCCCCC#CC#CC#CCCCCCCC(=O)O | 45 | 33 | 21

From ChEMBL document CHEMBL1158663, “New acetylenes isolated from the bark of Heisteria acuminata” (J Nat Prod, 1998)
